Data published in patent publication US10765642B2, “Composition for preventing or treating muscle weakness-related diseases comprising sobrerol” (KOREA RESEARCH INSTITUTE OF BIOSCIENCE AND BIOTECHNOLOGY, priority 2015, dated 2020).

Key:
aged mice = assay: treadmill test in aged mice after exercise restriction; assay type: in vivo; conditions: hind limbs immobilized 5 days then remobilization
Description: (§1) Experiments were conducted to confirm whether sobrerol increases muscle strength in aged mice. Female C57BL/6 mice at the age of 21 months were adapted to the environment for 2 weeks and then orally administered with drugs for 5 weeks. Specifically, the negative control group was administered with water, the positive control group was administered with clenbuterol at a concentration of 2 mg/kg (mouse), and the sobrerol administration experimental group was orally administered with sobrerol at a concentration of 17.6 or 35.3 mg/kg (mouse). Then, locomotion tests (grip strength, treadmill) were conducted again to verify the effect.
Both hind limbs of the mice were immobilized for 5 days using a surgical stapler (Autosuture Royal 35W stapler), and after removing the surgical stapler, they were allowed to move again (remobilization), and then exercise capability was evaluated by a treadmill test. As a result, the running time on the treadmill decreased after the exercise restriction as compared to that before the exercise restriction in the control group administered with distilled water, whereas the running time was not affected by exercise restriction in the experiment group administered with sobrerol (FIG. 17).

male C57BL/6 mice [1] = assay: treadmill test after hind limb immobilization and remobilization; assay type: in vivo; conditions: immobilized mice
Description: A total of 45 male C57BL/6 mice at 5 weeks of age (Daehan BioLink) were used in this animal experiment. After 2 weeks of adaptation to the surrounding environment, sobrerol was orally administered twice daily since 7 weeks of age. The control group was administered with 200 μL of water/20 g of mouse, and sobrerol was orally administered at a ratio of 1:2:4 [8.8 mg/200 μL/20 g (mouse), 17.6 mg/200 μL/20 g (mouse) and 35.3 mg/200 μL/20 g (mouse)] to verify dose dependency. At 8 weeks of age, both hind limbs of the mice were immobilized for 10 days using a surgical stapler (Autosuture Royal 35W stapler). (A novel hindlimb immobilization procedure for studying skeletal muscle atrophy and recovery in mouse. J Appl Physiol 106: 2049-2059, 2009). After removing the surgical stapler, they were allowed to move again for 3 days (remobilization), and then exercise capability improvement-verification tests (treadmill, and grip tests) were conducted. The equipment shown in FIG. 8 was used for the treadmill test. The treadmill test was conducted as shown in FIG. 9 with reference to the treadmill protocol of used for the treadmill test (DOI 10.1016/j.cell.2006.11.013_Cell, Volume 127 Supplemental Data). One day prior to the treadmill test, the equipment was warmed up at a rate of 6 m/min for 10 minutes. At the starting point, electric stimulation was configured to flow so that the mice were forced to exercise. The next day, the test was started at a speed of 8 m/min and the speed was increased by 2 m/min every 20 minutes. One hour after the start of the treadmill test, the speed of 12 m/min was maintained, and the angle was increased by 5° and the electric stimulation was turned off. After 20 minutes, the angle of 5° was maintained but only the speed was increased by 2 m/min. Under the above condition, the running times of the mice were measured and recorded.

[2] = tested on: myosin heavy chain (MyHC); assay: qRT-PCR of myogenic regulatory factor mRNA in C2C12 myoblasts: myosin heavy chain; assay type: cell-based; conditions: 0.1 μM sobrerol, 48 hours, growth medium
Description: (§2) Experiments were conducted to verify the effect of sobrerol on mRNA of myogenic regulatory factor. Specifically, the myoblasts (C2C12 myoblast cells) placed in the growth medium were treated with 0.1 μM sobrerol for 48 hours, and then subjected to qRT-PCR to measure the levels of MyoD, myogenin, and myosin heavy chain (MyHC).

male C57BL/6 mice [3] = assay: grip strength test after hind limb immobilization and remobilization; assay type: in vivo
Description: (§3) A total of 45 male C57BL/6 mice at 5 weeks of age (Daehan BioLink) were used in this animal experiment. After 2 weeks of adaptation to the surrounding environment, sobrerol was orally administered twice daily since 7 weeks of age. The control group was administered with 200 μL of water/20 g of mouse, and sobrerol was orally administered at a ratio of 1:2:4 [8.8 mg/200 μL/20 g (mouse), 17.6 mg/200 μL/20 g (mouse) and 35.3 mg/200 μL/20 g (mouse)] to verify dose dependency. At 8 weeks of age, both hind limbs of the mice were immobilized for 10 days using a surgical stapler (Autosuture Royal 35W stapler). (A novel hindlimb immobilization procedure for studying skeletal muscle atrophy and recovery in mouse. J Appl Physiol 106: 2049-2059, 2009). After removing the surgical stapler, they were allowed to move again for 3 days (remobilization), and then exercise capability improvement-verification tests (treadmill, and grip tests) were conducted.
(§4) The grip strength was measured using a grip strength measuring device for mouse (BIOSEB) (FIG. 6). Specifically, the front limbs of the mice of the Example 3-1 were placed on a wire net attached to an instrument panel capable of monitoring the strength, and the strength to hold the wire net was measured while the tail was gripped and pulled downward. The test was repeated three times in succession.

[4] = tested on: tibialis anterior (TA) muscle fibers; assay: muscle fiber diameter (laminin immunofluorescence of tibialis anterior section) in aged mice; assay type: in vivo; conditions: aged mice fed with sobrerol
Description: In addition, after the exercise restriction in the Example 3-3, sections of the tibialis anterior (TA) were stained by immunofluorescence analysis using the antibodies against laminin, which is a protein existing at the periphery of muscle fibers, and the diameter of each muscle fiber was measured.
as §1
(§5) In addition, changes in the muscle size and the muscle weight of the aged mice by sobrerol were verified by the method of the Example 3-3.
(§6) In addition, as in the Example 3-3, the diameter of the muscle fiber of the tibialis anterior (TA) section was measured by immunofluorescence analysis using laminin antibodies.

[5] = tested on: myosin heavy chain protein; assay: immunofluorescence of myosin heavy chain protein in C2C12 myoblasts; assay type: cell-based; conditions: 0.1 μM sobrerol, 72 hours, differentiation medium
Description: Among the myogenic regulatory factors whose mRNA increased in the Example 2-1, experiments were conducted to verify the effect of sobrerol on the expression of myosin heavy chain. Specifically, the expression level of the myosin heavy chain protein was measured by immunofluorescence after treating the C2C12 myoblasts placed in the differentiation medium with 0.1 μM of sobrerol for 72 hours.

[6] = tested on: female C57BL/6 mice at the age of 21 months; assay: grip strength test in aged mice; assay type: in vivo; conditions: oral for 5 weeks; for fatigue (grip strength weakening) on repeated grip strength measurement: sobrerol 17.6 or 35.3 mg/kg, clenbuterol 2 mg/kg
Description: as §4, §1
The grip strength test is the same as the Example 3-2.

[7] = tested on: tibialis anterior (TA) muscle fibers; assay: muscle fiber diameter (laminin immunofluorescence of tibialis anterior sections) after exercise restriction; assay type: in vivo, mice; conditions: oral
Description: as §3, with “conducted. In addition, after the exercise restriction in the Example 3-3, sections of the tibialis anterior (TA) were stained by immunofluorescence analysis using the antibodies against laminin, which is a protein existing at the periphery of muscle fibers, and the diameter of each muscle fiber was measured.” for “conducted.”

[8] = tested on: female C57BL/6 mice at the age of 21 months; assay: muscle weight in aged mice; assay type: in vivo; conditions: 35.3 mg/kg
Description: as §1, §5, §6

male C57BL/6 mice [9] = assay: muscle weight measurement after exercise restriction; assay type: in vivo; conditions: oral
Description: as §3, with “conducted. As a result, the diameters of the muscle fibers of the mice orally administered with sobrerol were larger than those of the control group orally administered with distilled water (FIG. 11).” for “conducted.”

[10] = tested on: female C57BL/6 mice at the age of 21 months; assay: treadmill test in aged mice; assay type: in vivo; conditions: 5 weeks
Description: One day prior to the treadmill test, the equipment was warmed up at a rate of 6 m/min for 10 minutes. At the starting point, electric stimulation was configured to flow so that the mice were forced to exercise. The next day, the test was started at a speed of 8 m/min and the speed was increased by 2 m/min every 20 minutes. One hour after the start of the treadmill test, the speed of 12 m/min was maintained, and the angle was increased by 5° and the electric stimulation was turned off. After 20 minutes, the angle of 5° was maintained but only the speed was increased by 2 m/min. Under the above condition, the running times of the mice were measured and recorded.
as §1
Tread mill test is the same as Example 3-3.

myogenin = assay: qRT-PCR of myogenic regulatory factor mRNA in C2C12 myoblasts: myogenin; assay type: cell-based; conditions: 0.1 μM sobrerol, 48 hours, growth medium
Description: as §2

MyoD = assay: qRT-PCR of myogenic regulatory factor mRNA in C2C12 myoblasts: MyoD; assay type: cell-based; conditions: 0.1 μM sobrerol, 48 hours, growth medium
Description: as §2

myogenin promoter = assay: secreted MyoG luciferase assay system (myogenin promoter-secreted luciferase C2C12 myoblast line); assay type: cell-based; conditions: for luciferase activity increase as compared to the negative control: negative control (MeOH) set at 1
Excerpt: To evaluate the myoblast differentiation-promoting capability of sobrerol, a secreted MyoG luciferase assay system was used (FIG. 1). Specifically, the promoter portion of myogenin, which is a protein whose expression is increased upon myogenesis, was cloned into a secreted luciferase vector (pMetLuc2-Reporter Vector, Clontech), and then the vector was transfected into myoblasts C2C12 to prepare a myogenin promoter-secreted luciferase C2C12 myoblast line capable of stably expressing the luciferase enzyme The differentiation degree of the myoblasts into myotube cells can be quantitatively verified through the system in which the luciferase enzymes are secreted into the medium as the myogenin promoter is activated. To induce differentiation into muscle cells, DMEM (Dulbecco's Modified Eagle Medium, Invitrogen) medium supplemented with 2% horse serum was added to the C2C12 myoblasts. Herein, the expressed MEF2 and MyoD bind to the myogenin promoter, and then the luciferase enzymes are expressed and secreted out of the cell. Since the secreted luciferase enzymes are present in the medium, it can be measured to verify the degree of myogenesis. […] Specific experimental methods are as follows. On the first day, the C2C12 cells prepared in the Example 1-1 were inoculated into a 96-well plate containing DMEM medium supplemented with 10% bovine serum (FBS) at a concentration of 5×10^3 cells/well. In the morning of the second day, the medium of the well plate was replaced with DMEM medium (Growth medium, GM) supplemented with 10% bovine serum, which is the same component. In the afternoon, the medium (GM) was collected. Then, each well was treated with 100 μL of DMEM medium (differentiation medium 1, DM1) supplemented with 2% horse serum diluted with the sobrerol at each concentration. On the third day, the DM1 medium was collected, and the wells were treated with the same medium as in the second day (DM2). On the fourth day, the DM2 was collected. The media containing the luciferase secreted in the differentiation process of C2C12 cells were collected starting from the growth medium (GM) to the first day differentiation medium (DM1) and the second day differentiation medium (DM2) as described above, and 5 μL of coelenterazine as a substrate was added to 50 μL of the collected medium containing the luciferase enzyme, and the generated light was measured using a luminometer. The myogenesis-promoting capability of sobrerol at each concentration was measured through digitization by subtracting the measured values of DM0 from the measured values of DM1 and DM2. […] Ready-To-Glow™ Secreted Luciferase Reporter Systems (Clontech) was used as the luciferase assay kit, and the experiment was repeated three times.

Compound: CC1=CCC(C(C)(C)O)CC1O (centres unmarked) [sobrerol]
- treadmill running time after exercise restriction versus before (aged mice): not affected
- treadmill running time versus group administered with distilled water (male C57BL/6 mice [1]; 8.8 mg/kg oral, still shorter than non-immobilization group): slightly longer
- treadmill running time versus non-immobilization group (male C57BL/6 mice [1]; 17.6 mg/kg oral): almost similar to the non-immobilization group
- treadmill running time versus non-immobilization group (male C57BL/6 mice [1]; 35.3 mg/kg oral): longer as compared to the non-immobilization group
- myosin heavy chain mRNA increase [2]: ≥ 25 fold
- grip strength with higher concentration of sobrerol administered (male C57BL/6 mice [3]; oral 8.8, 17.6, 35.3 mg/kg, immobilized mice): increasing tendency
- grip strength measurement value (male C57BL/6 mice [3]; oral, twice daily, hind limbs immobilized 10 days, remobilization 3 days, negative control 3.5 N or less): ≥ 4.0 N
- diameters of the muscle fibers (tibialis anterior section) [4]: further increased
- myosin heavy chain protein fluorescence intensity versus DMSO group [5]: stronger
- first measured grip strength values, difference between groups [6]: no differences
- fatigue (grip strength weakening) on repeated grip strength measurement [6]: did not show the increase in fatigue
- diameters of the muscle fibers (tibialis anterior) versus distilled water control [7]: larger
- weights of the gastrocnemius (GA) [8]: increased to a significant level
- weight of extensor digitorum longus (EDL) (male C57BL/6 mice [9]): significantly increased
- weight of gastrocnemius (GA) (male C57BL/6 mice [9]): significantly increased
- weight of soleus (male C57BL/6 mice [9]): significantly increased
- weight of tibialis anterior (TA) (male C57BL/6 mice [9]): significantly increased
- treadmill running time versus negative control group ([10]; 17.6 mg/kg oral): significantly longer
- treadmill running time versus negative control group ([10]; 35.3 mg/kg oral): longer running time than the negative control group
- myogenin mRNA increase (myogenin): 4 fold
- MyoD mRNA increase (MyoD): 2 fold
- luciferase activity increase as compared to the negative control (myogenin promoter; 0.01 nM sobrerol, C2C12): ≥ 1.2 fold
- luciferase activity versus control group (myogenin promoter; 0.01 nM to 10 μM sobrerol, C2C12): higher luciferase activity than the control group
- luciferase activity increase as compared to the negative control (myogenin promoter; 0.1 nM sobrerol, C2C12): about 1.5 fold
- concentration with the greatest differentiation-promoting capability (myogenin promoter; C2C12 myogenin promoter luciferase): 0.1 nM

Compound: CC(C)(C)NCC(O)c1cc(Cl)c(N)c(Cl)c1 (centres unmarked) [clenbuterol]
- fatigue (grip strength weakening) on repeated grip strength measurement [6]: did not show the increase in fatigue
